Measurements as given in patent publication US20240343704A1, “HALO-SUBSTITUTED AMINO PYRIDINE COMPOUNDS AS INHIBITORS OF THE HAEMATOPOIETIC PROGENITOR KINASE 1 (HPK1)” (priority 2021, published 2024).

Legend:
[1] = biological target: T1, Recombinant (1-346) HPK1 (h) (Homo sapiens, UniProt Q92918); assay: HPK1 Human STE Kinase Enzymatic Radiometric Assay; assay type: biochemical; details: read-out: HPK1 IC50 nM Range*
T1 construct: Recombinant (1-346) HPK1 (h) is incubated with 8 mM MOPS pH 7.0
T1 sequence (Q92918 1-346): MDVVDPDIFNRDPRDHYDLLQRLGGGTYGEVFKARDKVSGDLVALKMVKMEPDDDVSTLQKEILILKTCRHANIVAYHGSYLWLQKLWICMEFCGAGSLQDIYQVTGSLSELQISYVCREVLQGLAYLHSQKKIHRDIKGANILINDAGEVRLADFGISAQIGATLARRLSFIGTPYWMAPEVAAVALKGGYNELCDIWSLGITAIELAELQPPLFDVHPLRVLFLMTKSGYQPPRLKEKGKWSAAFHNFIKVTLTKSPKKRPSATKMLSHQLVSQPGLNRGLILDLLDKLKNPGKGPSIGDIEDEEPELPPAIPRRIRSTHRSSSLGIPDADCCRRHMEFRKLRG
Description: A stock solution of 10 mM of test compound is prepared in DMSO. The compound plate was prepared by 3-fold and 9-point serial dilutions. […] The reaction is initiated by The addition of the Mg/ATP mix. After incubation for 40 minutes at RT, the reaction is stopped by the addition of phosphoric acid to a concentration of 0.5%.

Lck (h) = Lck (h) (Homo sapiens, UniProt P06239); assay: Lck Human  Kinase Enzymatic Radiometric Assay; assay type: biochemical; details: read-out: Lck IC50 nM Range*
Description: Lck (h) is incubated with 50 mM Tris pH 7.5, 0.1 mM EGTA, 0.1 mM Na3VO4, 250 uM KVEKIGEGTYGVVYK (Cdc2 peptide), 10 mM MgAcetate and [gamma-33P]-ATP (specific activity and concentration as required). The reaction is initiated by the addition of the Mg/ATP mix. After incubation for 40 minutes at RT, the reaction is stopped by the addition of phosphoric acid to a concentration of 0.5%. 10 uL of the reaction is then spotted onto a P30 filtermat and washed four times for 4 minutes in 0.425% phosphoric acid and once in methanol prior to drying and scintillation counting. For more details on the kinase assay procedures see: Gao, Y. et. al.; Biochem J., 451 (2): 313-328, 2013.

Sequence of Lck (h) (P06239 whole entry): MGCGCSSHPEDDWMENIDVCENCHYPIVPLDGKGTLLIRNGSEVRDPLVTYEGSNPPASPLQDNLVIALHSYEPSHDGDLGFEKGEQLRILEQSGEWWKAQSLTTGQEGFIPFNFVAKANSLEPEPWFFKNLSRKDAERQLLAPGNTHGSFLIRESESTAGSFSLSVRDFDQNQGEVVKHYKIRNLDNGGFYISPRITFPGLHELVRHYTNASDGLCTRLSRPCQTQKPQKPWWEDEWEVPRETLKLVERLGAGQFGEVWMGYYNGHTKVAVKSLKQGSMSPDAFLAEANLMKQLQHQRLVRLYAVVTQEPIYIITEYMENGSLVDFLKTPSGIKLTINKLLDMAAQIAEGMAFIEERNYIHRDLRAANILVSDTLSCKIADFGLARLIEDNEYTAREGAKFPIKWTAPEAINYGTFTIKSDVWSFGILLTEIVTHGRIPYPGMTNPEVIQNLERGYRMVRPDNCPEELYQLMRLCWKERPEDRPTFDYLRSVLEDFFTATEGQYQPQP

Row | IC50 [1] | IC50 (Lck (h)) | SMILES
1 | 0.1 to 10 nM | > 1000 nM | Nc1nc(F)c(-c2ccc(N3CCOCC3)cn2)cc1-c1ccc2c(c1)CCNC2=O [I-26, 6-(6′-amino-2′-fluoro-5-morpholino-[2,3′-bipyridin]-5′-yl)-3,4-dihydroisoquinolin-1(2H)-one]
2 | 0.1 to 10 nM | > 1000 nM | COCCN1CCN(c2ccc(-c3cc(-c4ccc5c(c4)CCNC5=O)c(N)nc3F)cc2)CC1 [I-29, 6-(2-amino-6-fluoro-5-(4-(4-(2-methoxyethyl)piperazin-1-yl)phenyl)pyridin-3-yl)-3,4-dihydroisoquinolin-1(2H)-one]
3 | 11 to 100 nM | > 1000 nM | CN1CCN(c2ccc(-c3cc(-c4ccc5c(c4)CNC5=O)c(N)nc3F)cc2)CC1 [I-32, 5-(2-amino-6-fluoro-5-(4-(4-methylpiperazin-1-yl)phenyl)pyridin-3-yl)isoindolin-1-one]
4 | 0.1 to 10 nM | > 1000 nM | CN1CCN(c2ccc(-c3cc(-c4ccc5c(c4)C(C)(C)NC5=O)c(N)nc3F)cc2)CC1 [I-33, 5-(2-amino-6-fluoro-5-(4-(4-Methylpiperazin-1-yl)phenyl)pyridin-3-yl)-3,3-dimethylisoindolin-1-one]
5 | 0.1 to 10 nM | > 1000 nM | CC(=O)N1CCC(Oc2ccc(-c3cc(-c4ccc5c(c4)CCNC5=O)c(N)nc3F)cc2)CC1 [I-34, 6-(5-(4-((1-acetylpiperidin-4-yl)oxy)phenyl)-2-amino-6-fluoropyridin-3-yl)-3,4-dihydroisoquinolin-1(2H)-one]

The next lines start with the molecule.

Row | SMILES | IC50 [1] | IC50 (Lck (h))
6 | CO[C@@H](C)CN1CCN(c2ccc(-c3cc(-c4ccc5c(c4)CCNC5=O)c(N)nc3F)cc2)CC1 [I-24, (S)-6-(2-amino-6-fluoro-5-(4-(4-(2-methoxypropyl)piperazin-1-yl)phenyl)pyridin-3-yl)-3,4-dihydroisoquinolin-1(2H)-one] | 0.1 to 10 nM | > 1000 nM
7 | CO[C@H](C)CN1CCN(c2ccc(-c3cc(-c4ccc5c(c4)CCNC5=O)c(N)nc3F)cc2)CC1 [I-25, (R)-6-(2-amino-6-fluoro-5-(4-(4-(2-methoxypropyl)piperazin-1-yl)phenyl)pyridin-3-yl)-3,4-dihydroisoquinolin-1(2H)-one] | 0.1 to 10 nM | > 1000 nM
8 | CN1CCN(c2ccc(-c3cc(-c4ccc5c(c4)CCNC5=O)c(N)nc3F)nc2)CC1 [I-27, 6-(6′-amino-2′-fluoro-5-(4methylpiperazin-1-yl)-[2,3′-bipyridin]-5′-yl)-3,4dihydroisoquinolin-1(2H)-one acetate] | 0.1 to 10 nM | > 1000 nM
9 | C[Si](C)(O)c1ccc(-c2cc(-c3ccc4c(c3)CCNC4=O)c(N)nc2F)cc1 [I-28, 6-(2-amino-6-fluoro-5-(4-(hydroxydimethylsilyl)phenyl)pyridin-3-yl)-3,4-dihydroisoquinolin-1(2H)-one] | 11 to 100 nM | > 1000 nM
10 | Nc1nc(F)c(-c2ccc(C3CCNCC3)cc2)cc1-c1ccc2c(c1)CCNC2=O [I-30, 6-(2-amino-6-fluoro-5-(4-(piperidin-4-yl)phenyl)pyridin-3-yl)-3,4-dihydroisoquinolin-1(2H)-one] | 0.1 to 10 nM | > 1000 nM
11 | CN1CCN(c2ccc(-c3cc(-c4ccc5c(c4)CCNC5=O)c(N)nc3F)cc2)C=N1 [I-31, 6-(2-amino-6-fluoro-5-(4-(1-methyl-5,6-dihydro-1,2,4-triazin-4(1H)-yl)phenyl)pyridin-3-yl)-3,4-dihydroisoquinolin-1(2H)-one] | 0.1 to 10 nM | > 1000 nM
12 | Nc1nc(F)c(-c2ccc(OC3CCOCC3)cc2)cc1-c1ccc2c(c1)CCNC2=O [I-35, 6-(2-amino-6-fluoro-5-(4-((tetrahydro-2H-pyran-4-yl)oxy)phenyl)pyridin-3-yl)-3,4-dihydroisoquinolin-1(2H)-one] | 0.1 to 10 nM | > 1000 nM
13 | CN1C[C@H]2C[C@@]2(c2ccc(-c3cc(-c4ccc5c(c4)C(C)(C)NC5=O)c(N)nc3F)cc2)C1 [I-36, 5-(2-amino-6-fluoro-5-(4-((1R,5S)-3-methyl-3-azabicyclo[3.1.0]hexan-1-yl)phenyl)pyridin-3-yl)-3,3-dimethylisoindolin-1-one] | 0.1 to 10 nM | > 1000 nM
